# Measured values from patent US20230416225A1, “DIAMINOPYRIMIDINE CARBOXAMIDE INHIBITORS OF HPK1” (MERCK SHARP & DOHME LLC, priority 2020, published 2023).
# pIC50: −log10 of the molar value.
# Target: T1, Human HPK1, catalytic domain (Homo sapiens, UniProt Q92918)
# T1 construct: purchased Carna
# T1 sequence (Q92918 1-346): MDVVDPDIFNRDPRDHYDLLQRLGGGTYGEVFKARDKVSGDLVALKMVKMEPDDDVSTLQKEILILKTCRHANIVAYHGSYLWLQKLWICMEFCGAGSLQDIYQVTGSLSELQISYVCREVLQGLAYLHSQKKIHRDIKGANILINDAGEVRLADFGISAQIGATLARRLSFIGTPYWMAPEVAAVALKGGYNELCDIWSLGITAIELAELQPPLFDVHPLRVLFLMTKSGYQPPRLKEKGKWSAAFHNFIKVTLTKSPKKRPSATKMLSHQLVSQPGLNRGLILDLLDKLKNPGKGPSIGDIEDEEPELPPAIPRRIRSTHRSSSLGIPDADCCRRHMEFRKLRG
# Test: HPK1-SLP76 TR-FRET assay
# Type: biochemical
# Conditions: 75 pM HPK1, 10 uM ATP, 10 nM SLP76, 30 min compound pre-incubation
row,SMILES,pIC50
1,"Cc1c(Cl)cccc1Nc1ncc(C(N)=O)c(Nc2cccc3c2CCNC3=O)n1 [Example 25-26, 2-[(3-chloro-2-methylphenyl)amino]-4-[(1-oxo-1,2,3,4-tetrahydroisoquinolin-5-yl)amino]pyrimidine-5-carboxamide]",6.69
2,"Cc1cccc(Nc2ncc(C(N)=O)c(Nc3cccc4c3CCNC4=O)n2)c1C [Example 25-11, 2-[(2,3-dimethylphenyl)amino]-4-[(1-oxo-1,2,3,4-tetrahydroisoquinolin-5-yl)amino]pyrimidine-5-carboxamide]",7.15
3,"COc1cc2c(cc1Nc1ncc(C(N)=O)c(Nc3c(C)noc3C)n1)CN(C)CC2 [Example 7-83, 4-((3,5-dimethylisoxazol-4-yl)amino)-2-((6-methoxy-2-methyl-1,2,3,4-tetrahydroisoquinolin-7-yl)amino)pyrimidine-5-carboxamide]",8.32
4,"COc1cc2c(cc1Nc1ncc(C(N)=O)c(Nc3ccc(F)c(C#N)c3)n1)CN(C)CC2 [Example 7-26, 4-[(3-cyano-4-fluorophenyl)amino]-2-[(6-methoxy-2-methyl-1,2,3,4-tetrahydroisoquinolin-7-yl)amino]pyrimidine-5-carboxamide]",7.82
5,"COc1cc(C2CCNCC2)ccc1Nc1ncc(C(N)=O)c(Nc2ccccc2C(F)(F)F)n1 [Example 8-2, 2-((2-methoxy-4-(piperidin-4-yl)phenyl)amino)-4-((2-(trifluoromethyl)phenyl)amino)pyrimidine-5-carboxamide]",7.93
6,"COc1cc2c(cc1Nc1ncc(C(N)=O)c(Nc3ccccc3Br)n1)CN(C(=O)C1CCC1)CC2 [Example 12-9, 4-[(2-bromophenyl)amino]-2-{[2-(cyclobutanecarbonyl)-6-methoxy-1,2,3,4-tetrahydroisoquinolin-7-yl]amino}pyrimidine-5-carboxamide]",6.76
7,"COc1cc2c(cc1Nc1ncc(C(N)=O)c(NCc3cccc(C#N)c3)n1)CN(C)CC2 [Example 26-58, 4-{[(3-cyanophenyl)methyl]amino}-2-[(6-methoxy-2-methyl-1,2,3,4-tetrahydroisoquinolin-7-yl)amino]pyrimidine-5-carboxamide]",8.01
8,"COc1cc(F)ccc1Nc1ncc(C(N)=O)c(Nc2cccc3c2CCNC3=O)n1 [Example 25-41, 2-[(4-fluoro-2-methoxyphenyl)amino]-4-[(1-oxo-1,2,3,4-tetrahydroisoquinolin-5-yl)amino]pyrimidine-5-carboxamide]",6.13
9,"CNC(=O)c1cccc(Nc2nc(Nc3cc4c(cc3F)CCN(C)C4)ncc2C(N)=O)c1 [Example 7-41, 2-[(6-fluoro-2-methyl-1,2,3,4-tetrahydroisoquinolin-7-yl)amino]-4-{[3-(methylcarbamoyl)phenyl]amino} pyrimidine-5-carboxamide]",8.05
10,"Cc1cc(Nc2ncc(C(N)=O)c(Nc3cccc4c3CCNC4=O)n2)cc(C(F)(F)F)c1 [Example 25-29, 2-{[3-methyl-5-(trifluoromethyl)phenyl]amino}-4-[(1-oxo-1,2,3,4-tetrahydroisoquinolin-5-yl)amino]pyrimidine-5-carboxamide]",7.19
11,"COc1cc2c(cc1Nc1ncc(C(N)=O)c(NCc3cccc(C(F)(F)F)c3)n1)CN(C)CC2 [Example 26-35, 2-[(6-methoxy-2-methyl-1,2,3,4-tetrahydroisoquinolin-7-yl)amino]-4-({[3-(trifluoromethyl)phenyl]methyl}amino)pyrimidine-5-carboxamide]",7.28
12,"COc1cc2c(cc1Nc1ncc(C(N)=O)c(Nc3cc(C)nn3Cc3ccccc3)n1)CN(C)CC2 [Example 7-91, 4-((1-benzyl-3-methyl-1H-pyrazol-5-yl)amino)-2-((6-methoxy-2-methyl-1,2,3,4-tetrahydroisoquinolin-7-yl)amino)pyrimidine-5-carboxamide]",7.41
13,"Cn1cc(Nc2ncc(C(N)=O)c(Nc3cccc4c3CCNC4)n2)cn1 [Example 7-12, 2-[(1-methyl-1H-pyrazol-4-yl)amino]-4-[(1,2,3,4-tetrahydroisoquinolin-5-yl)amino]pyrimidine-5-carboxamide]",8.73
14,"COc1cc2c(cc1Nc1ncc(C(N)=O)c(NC3CCC(C(F)(F)F)CC3)n1)CN(C)CC2 (stereo not drawn) [Example 26-16, 2-[(6-methoxy-2-methyl-1,2,3,4-tetrahydroisoquinolin-7-yl)amino]-4-{[4-(trifluoromethyl)cyclohexyl]amino}pyrimidine-5-carboxamide]",7.93
15,"NC(=O)c1cnc(Nc2cnn3c2CCCC3)nc1Nc1cccc2c1CCNC2=O [Example 7-53, 4-[(1-oxo-1,2,3,4-tetrahydroisoquinolin-5-yl)amino]-2-[(4,5,6,7-tetrahydropyrazolo[1,5-a]pyridin-3-yl)amino]pyrimidine-5-carboxamide]",8.40

# These reach a higher pIC50. Values come first.
row,pIC50,SMILES
1,8.88,"COc1cc2c(cc1Nc1ncc(C(N)=O)c(N[C@H](C)C3CCCCC3)n1)CN(C)CC2 [Example 26-6, 4-{[(1R)-1-cyclohexylethyl]amino}-2-[(6-methoxy-2-methyl-1,2,3,4-tetrahydroisoquinolin-7-yl)amino]pyrimidine-5-carboxamide]"
2,8.93,"COc1nn(C)cc1Nc1ncc(C(N)=O)c(Nc2cccc3c2CCNC3)n1 [Example 7-9, 2-[(3-methoxy-1-methyl-1H-pyrazol-4-yl)amino]-4-[(1,2,3,4-tetrahydroisoquinolin-5-yl)amino]pyrimidine-5-carboxamide]"
3,8.98,"COc1cc2c(cc1Nc1ncc(C(N)=O)c(Nc3cccc(Cl)c3)n1)CN(C)CC2 [Example 7-25, 4-[(3-chlorophenyl)amino]-2-[(6-methoxy-2-methyl-1,2,3,4-tetrahydroisoquinolin-7-yl)amino]pyrimidine-5-carboxamide]"
4,9.19,"COc1cc2c(cc1Nc1ncc(C(N)=O)c(Nc3ccccc3-c3ncco3)n1)CN(C)CC2 [Example 14-3, 2-[(6-methoxy-2-methyl-1,2,3,4-tetrahydroisoquinolin-7-yl)amino]-4-{[2-(1,3-oxazol-2-yl)phenyl]amino}pyrimidine-5-carboxamide]"
5,9.21,"Cc1cccc(F)c1Nc1nc(Nc2cc3c(cc2Cl)CCN(C)C3)ncc1C(N)=O [Example 4-5, 2-[(6-chloro-2-methyl-1,2,3,4-tetrahydroisoquinolin-7-yl)amino]-4-[(2-fluoro-6-methylphenyl)amino] pyrimidine-5-carboxamide]"
6,9.34,"COc1cc2c(cc1Nc1ncc(C(N)=O)c(N[C@@H]3CCCC[C@H]3C(F)F)n1)CN(C)CC2 [Example 26-33, 4-{[(1R,2R)-2-(difluoromethyl)cyclohexyl]amino}-2-[(6-methoxy-2-methyl-1,2,3,4-tetrahydroisoquinolin-7-yl)amino]pyrimidine-5-carboxamide]"
7,9.35,"COc1cc2c(cc1Nc1ncc(C(N)=O)c(Nc3c(F)cc(F)cc3Cl)n1)CN(C)CC2 [Example 4-21, 4-[(2-chloro-4,6-difluorophenyl)amino]-2-[(6-methoxy-2-methyl-1,2,3,4-tetrahydroisoquinolin-7-yl)amino]pyrimidine-5-carboxamide]"
8,9.38,"COc1cc2c(cc1Nc1ncc(C(N)=O)c(Nc3c(F)cc(Br)cc3F)n1)CN(C)CC2 [Example 4-30, 4-[(4-bromo-2,6-difluorophenyl)amino]-2-[(6-methoxy-2-methyl-1,2,3,4-tetrahydroisoquinolin-7-yl)amino]pyrimidine-5-carboxamide]"
9,9.40,"COc1cc2c(cc1Nc1ncc(C(N)=O)c(Nc3ccc(C)cc3)n1)CN(C)CC2 [Example 7-24, 2-[(6-methoxy-2-methyl-1,2,3,4-tetrahydroisoquinolin-7-yl)amino]-4-[(4-methylphenyl)amino]pyrimidine-5-carboxamide]"
10,9.40,"COc1cc2c(cc1Nc1ncc(C(N)=O)c(Nc3ccccc3CC3(C#N)CCC3)n1)CN(C)CC2 [Example 13-11, 4-({2-[(1-cyanocyclobutyl)methyl]phenyl}amino)-2-[(6-methoxy-2-methyl-1,2,3,4-tetrahydroisoquinolin-7-yl)amino]pyrimidine-5-carboxamide]"
11,9.42,"COc1cc2c(cc1Nc1ncc(C(N)=O)c(N[C@H]3CCc4ccccc43)n1)CN(C)CC2 [Example 26-37, 4-{[(1S)-2,3-dihydro-1H-inden-1-yl]amino}-2-[(6-methoxy-2-methyl-1,2,3,4-tetrahydroisoquinolin-7-yl)amino]pyrimidine-5-carboxamide]"
12,9.66,"COc1cc2c(cc1Nc1ncc(C(N)=O)c(NCc3ccccc3C(F)(F)F)n1)CN(C)CC2 [Example 26-21, 2-[(6-methoxy-2-methyl-1,2,3,4-tetrahydroisoquinolin-7-yl)amino]-4-({[2-(trifluoromethyl)phenyl]methyl}amino)pyrimidine-5-carboxamide]"
13,9.68,"CN1CCc2cc(F)c(Nc3ncc(C(N)=O)c(Nc4cccc5c4CCNC5=O)n3)cc2C1 [Example 7-37, 2-[(6-fluoro-2-methyl-1,2,3,4-tetrahydroisoquinolin-7-yl)amino]-4-[(1-oxo-1,2,3,4-tetrahydroisoquinolin-5-yl)amino]pyrimidine-5-carboxamide]"
14,9.70,"COc1cc2c(cc1Nc1ncc(C(N)=O)c(Nc3ccccc3OC(F)(F)F)n1)CN(C)CC2 [Example 7-115, 2-[(6-methoxy-2-methyl-1,2,3,4-tetrahydroisoquinolin-7-yl)amino]-4-{[2-(trifluoromethoxy)phenyl]amino} pyrimidine-5-carboxamide]"
15,9.92,"COc1cc2c(cc1Nc1ncc(C(N)=O)c(Nc3c(F)cccc3C3CCOCC3)n1)CN(C)CC2 [Example 13-12, 4-{[2-fluoro-6-(oxan-4-yl)phenyl]amino}-2-[(6-methoxy-2-methyl-1,2,3,4-tetrahydroisoquinolin-7-yl)amino]pyrimidine-5-carboxamide]"
